Source: patent US20100178658A1, “SCREENING ASSAYS FOR INHIBITORS OF BETA AMYLOID PEPTIDE ION CHANNEL FORMATION” (The Regents of the University of Michigan, priority 2007, published 2010)
“Also recorded” adds a separate entry of the source.

Columns and labels:
Aβ fibrils = molecular target: T1, Aβ fibrils (Homo sapiens, UniProt P05067); settings: cited from earlier work; for Binding and coating of Aβ fibrils (inhibition of IgG-Aβ fibril interactions): ELISA with monoclonal anti-Aβ IgG clone 6E10, Inbar et al.
T1 construct: the Aβ fibrils are grown from synthetic Aβ (1-42) peptides by incubating the peptides (74 μM) in ultrapure water

[1] = molecular target: T2, Aβ peptide (1-42) ion channels (Homo sapiens, UniProt P05067); assay: Electrophysiological planar lipid bilayer assay for Aβ peptide ion channel activity (bilayer chambers, voltage clamp); assay type: biochemical; settings: for Inhibition of Aβ pores / ion channel activity of Aβ: electrophysiological screening assay of FIGS. 3-5; for Inhibition of Aβ peptide ion channel formation (pore forming activity): 37 μM Aβ peptide, test compound in molar ratio 1:1, added at the same time as Aβ peptide, planar lipid bilayer; for Disruption of preformed Aβ ion channels: added after current activity was observed
T2 construct: purchased Innovagen, Lund, SE or Bachem Bioscience Inc., King of Prussia, Pa., USA
Text: Ion channel measurements. Screening assays can be performed using single channel recordings in “voltage clamp mode” using Ag/AgCl electrodes (Warner Instruments) in each compartment of the bilayer chambers. Data acquisition and storage can be carried out using custom software in combination with either an EPC-7 patch clamp amplifier from List Medical Electronic (set at a gain of 10 mV pA-1 and a filter cutoff frequency of 3 kHz) or a Geneclamp 500 amplifier from Axon Instruments (with a CV-5B 100GU headstage, set at a gain of 100 mV pA-1 and filter cutoff frequency of 1 kHz). In some embodiments, patch clamp amplifiers, for example, the EPC-7 amplifier can be used for most folded bilayers and the Geneclamp 500 amplifier for most painted bilayers. The data acquisition boards for both amplifiers were set to a sampling frequency of 15 kHz. Current traces can be further filtered using a digital Gaussian low-pass filter with a cutoff frequency of 30 Hz. In some embodiments, the current traces used to generate data that can be recorded at applied potentials 50 mV and filtered at 10 Hz.
Analysis of the single channel current traces can be made by computing histograms of the currents from the original current-time traces with ClampFit 9.2 software from Axon Instruments. From these histograms, the main current values can be extracted by fitting a Gaussian function to the peaks in the histograms. Single channel conductances can refer to the main conductance state (i.e. to the dominant peaks in the current histograms).
The lipid mixture can be made from POPE:POPG (Avanti Polar Lipids) at 25 mg/ml (1:1) in Heptane. The pretreatment lipid solution can be POPE:POPG 20 mg/mL in Hexane. 2. The bilayer is formed in classic bilayer cups and chamber (Warner Instruments). This 2-part system consists of a black Delrin chamber and a cup of Delrin. Cups and chambers are designed such that addition of equal volumes to the cup and chamber (cis and trans sides) results in a balanced solution height, minimizing any pressure gradients across the bilayer membrane.
The bilayer was formed over a 250-μm hole in a partition separating two Delrin compartments, the so called “painting technique.” First, droplets of pretreated lipid solution were placed on both sides of the hole, using 100 μL-Hamilton syringe. Once the droplet of hexane evaporates, both chambers (cis and trans) were symmetrically filled with 900 μL of buffer solution, 100 mM KH2PO4/K2HPO4 pH 7.4, at room temperature.
When the bilayer set-up was already in place with Ag/AgCl electrodes in Faraday cage (a bilayer workstation which provides critical shielding of electromagnetic interference from outside sources and isolate vibration) the lipid solution (POPE:POPG in Heptane) can be painted directly over the hole by using a thin paintbrush. Blowing air underneath the hole using a Pasteur pipette to thin out the bilayer can be used until the appropriate capacitance (80-120 pF) is achieved. A voltage of ±100 mV was applied for at least 10 minutes to test stability of lipid bilayer.
Aβ(1-42) (commercially available from Innovagen, Lund, SE or Bachem Bioscience Inc., King of Prussia, Pa., USA) is initially dissolved in deionized water at 1 mg/ml (221.5 μM) and stored at −20° C. The stock solution can be aliquotted to sufficient amount for each time use (90 μL). After the stable bilayer is constituted, the Aβ(1-42) solution can be added to the trans side of the chamber to obtain a final concentration of 37 μM. The solution is mixed well in the chamber under stirring for 5 minutes.
Congo Red (Sigma) is dissolved in de-ionized (DI) water to achieve a concentration of 2.5 mg/ml (3.58 mM as a stock solution). (−)Nicotine hemisulfate (Sigma, St. Louis, Mo., USA) was diluted to 1.89 mM in DI water. Tannic acid (Riedel-de Haën, Seelze, Germany) is diluted to 20 mM in DI water.

T2 sequence (P05067 672-713 limits assumed): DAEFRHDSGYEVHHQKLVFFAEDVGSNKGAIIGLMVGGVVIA
T1 sequence (P05067 672-713 limits assumed): as above

With `O=S(=O)([O-])c1ccc(O)c2ccccc12.[Na+]` [1-naphthol-4-sulfonate] as the molecule, how does the “Binding and coating of Aβ fibrils (inhibition of IgG-Aβ fibril interactions)” value (Aβ fibrils) read?
The value was “do not interact with Aβ fibrils”.

Which “Binding to aggregated Aβ fibrils” value (Aβ fibrils) does the source give for `Nc1c(/N=N/c2ccc(-c3ccc(/N=N/c4cc(S(=O)(=O)O)c5ccccc5c4N)cc3)cc2)cc(S(=O)(=O)O)c2ccccc12` [Congo Red] here?
The value was “bind strongly”.

What about the “Inhibition of Aβ pores / ion channel activity of Aβ” value [1] of the same molecule?
Its value is “inhibit Aβ pores”.

Which results are given for `O=C(OC[C@H]1O[C@@H](OC(=O)c2cc(O)c(O)c(OC(=O)c3cc(O)c(O)c(O)c3)c2)[C@H](OC(=O)c2cc(O)c(O)c(OC(=O)c3cc(O)c(O)c(O)c3)c2)[C@@H](OC(=O)c2cc(O)c(O)c(OC(=O)c3cc(O)c(O)c(O)c3)c2)[C@@H]1OC(=O)c1cc(O)c(O)c(OC(=O)c2cc(O)c(O)c(O)c2)c1)c1cc(O)c(O)c(OC(=O)c2cc(O)c(O)c(O)c2)c1` [Tannic acid]?
Binding to aggregated Aβ fibrils (Aβ fibrils): bind strongly; Inhibition of Aβ peptide ion channel formation (pore forming activity) [1]: Inhibition of Aβ ion channel formation; Inhibition of Aβ pores / ion channel activity of Aβ [1]: inhibit ion channel activity of Aβ; Inhibition of Aβ pores / ion channel activity of Aβ ([1]; listed as tannic acid): inhibit Aβ pores

For `Cc1ccc2c(c1)sc(-c1ccc(N(C)C)cc1)[n+]2C.[Cl-]` [ThT, Thioflavin T], which “Binding and coating of Aβ fibrils (inhibition of IgG-Aβ fibril interactions)” value (Aβ fibrils) is on record?
The value was “bind and coat Aβ fibrils”.

For `NCCc1ccc(O)c(O)c1` [dopamine], which “Inhibition of Aβ pores / ion channel activity of Aβ” value [1] is on record?
The value was “inhibit Aβ pores”.

For `CN1CCC[C@H]1c1cccnc1` [nicotine, (−)Nicotine hemisulfate], which “Inhibition of Aβ peptide ion channel formation (pore forming activity)” value [1] is on record?
Its value is “eliminated ion channel pore forming activity”.

And the “Amount of nicotine needed: disruption of preformed channels versus inhibition of de novo formed channels” value ([1]; comparison of preformed and de novo formed Aβ ion channels)?
Its value is “required more nicotine than the inhibition de novo formed ion channels”.

What about the “Inhibition of Aβ pores / ion channel activity of Aβ” value [1] of the same molecule?
Its value is “inhibit Aβ pores”.

And the “Concentration dependence of disruption of Aβ peptide ion channel activity” value ([1]; nicotine added after observing Aβ current activity, 1:1, 1:2, 1:3 and 1:4 molar ratio)?
The value was “concentration-dependent disruption of Aβ peptide ion channel activity”.

And the “Disruption of preformed Aβ ion channels” value ([1]; nicotine at 2-fold molar excess with respect to Aβ peptide (1-42))?
The value was “disrupted preformed ion channels”.

What about the “Disruption of preformed Aβ ion channels” value ([1]; nicotine at 4-fold molar excess (4:1) with respect to Aβ peptide (1-42)) of the same molecule?
Its value is “disrupted preformed ion channels almost completely; also recorded: disrupted preformed Aβ peptide ion channel activity almost completely”.

And the “Time to almost complete disruption of preformed ion channels” value ([1]; nicotine at 4-fold molar excess with respect to Aβ peptide (1-42))?
Its value is ≤ 10 min.

For Diaminoacridine [DAA], which “Binding and coating of Aβ fibrils (inhibition of IgG-Aβ fibril interactions)” value (Aβ fibrils) is on record?
Its value is “bind and coat Aβ fibrils”.
